Active and inactive are the calls of the source. The calls are words filed in the database; no cut-off is given here.
Assays:
Oocyte [1] = assay: Agonist activity at rat AMPA receptor expressed in Xenopus oocytes at 100 uM; format: functional, cell-based
[2] = Antagonist activity at rat AMPA receptor expressed in Xenopus oocytes assessed as reduction of kainate-induced membrane current at 100 uM relative to kainate; format: functional, Oocyte; parameters: scale not given: the % may be the effect or the level left
Oocyte [3] = assay: Agonist activity at rat KA receptor expressed in Xenopus oocytes at 100 uM; format: functional, cell-based
[4] = Antagonist activity at rat KA receptor expressed in Xenopus oocytes assessed as reduction of kainate-induced membrane current at 100 uM relative to kainate; format: functional, Oocyte; parameters: scale not given: the % may be the effect or the level left

Activity (Oocyte [1]) | Activity (Oocyte [3]) | SMILES | Activity [2] [%] | Activity [4] [%]
inactive | inactive | Cc1ccc([C@H]2CC[C@](C(=O)O)([C@@H](O)[C@@H](N)C(=O)O)N2)cc1 | 83 | 83
inactive | inactive | Cc1ccccc1[C@H]1CC[C@](C(=O)O)([C@@H](O)[C@@H](N)C(=O)O)N1 | 49 | 49
inactive | inactive | Cc1cccc([C@H]2CC[C@](C(=O)O)([C@@H](O)[C@@H](N)C(=O)O)N2)c1 | 75 | 75
inactive | inactive | N[C@@H](C(=O)O)[C@H](O)[C@@]1(C(=O)O)CC[C@H](c2ccccc2)N1 | 72 | 72

Source: ChEMBL document CHEMBL1139270, “Design, synthesis, and biological evaluation of a scaffold for iGluR ligands based on the structure of (-)-kaitocephalin” (2009)
